In experiment [1] the target is mushroom tyrosinase. Particulars: read-out: IC50 (previously reported tyrosinase inhibitor); cited from earlier work.
In experiment [2] the target is mushroom tyrosinase. Kind of experiment: Mushroom tyrosinase activity assay (L-DOPA to dopachrome). It is filed as biochemical. Particulars: L-DOPA substrate, 37 °C, pH 6.8, mean ± SEM, n = 3. The protocol: Enzymatic conversion of L-DOPA into dopachrome by mushroom tyrosinase (Sigma Aldrich, St. Louis, MO) was detected using spectrophotometric evaluation. The mushroom tyrosinase activity assay was performed according to a previous report. In this study, the enzyme assay was conducted at 37 °C, which is in the optimal temperature range of tyrosinase, as per previous studies[20]^,[21]. The enzyme, substrate, and inhibitor(s) were dissolved in potassium phosphate buffer at a pH of 6.8, which is in the optimal pH range of tyrosinase. Note that, the solvent for preparing the stock solution of inhibitors was dimethyl sulphoxide. […] Then, the substrate (10 μL of 50 mM of L-DOPA) was introduced to the samples, followed by incubation at 37 °C for 15 min in darkness. The absorbance was later measured at 450 nm. The experiment was conducted in triplicate. IC50 values were determined through dose–response curve analysis using GraphPad Prism 10.2.2 software (La Jolla, CA).
Data are presented as the mean ± standard error of the mean (SEM) from three independent experiments (n = 3). Statistical comparisons between two groups were conducted using the t-test, with a p value of <0.05 considered to be statistically significant.

Experiment [3] deals with EGFR. On the set-up: method as in PMID 35664590, PMID 25019480. Particulars: cited from earlier work.

Read-outs that look alike come from different tables or passages of the source.

In the case of `C[C@@H]1[C@H](O)[C@@H](C)/C=C/C=C/C=C/C=C/C=C/C=C/C=C/[C@H](O[C@@H]2O[C@H](C)[C@@H](O)[C@H](N)[C@@H]2O)C[C@@H]2O[C@](O)(C[C@@H](O)C[C@@H](O)[C@H](O)CC[C@@H](O)C[C@@H](O)CC(=O)O[C@H]1C)C[C@H](O)[C@H]2C(=O)O` [amphotericin B], in experiment [1], the 50% inhibitory concentration (IC50) is 263 ± 11.8 µM.
In experiment [2], `O=C1C=C(Nc2ccccc2)C(=O)c2ccccc21` [compound 1] gave an IC50 of 151 ± 4.39 µM.
In the case of `Cc1ccc(NC2=C(Cl)C(=O)c3ccccc3C2=O)cc1` [compound 3], the “EGFR inhibitory potency relative to erlotinib” value in experiment [3] is “fourfold higher potency than erlotinib”.
The compound `O=C1C(Cl)=C(Nc2ccc(Br)cc2)C(=O)c2ccccc21` [compound 5] had an IC50 in experiment [2] of 138 ± 6.07 µM.
With `CC(=O)c1cccc(NC2=C(Cl)C(=O)c3ccccc3C2=O)c1` [compound 10], in experiment [2], the IC50 came out at 112 ± 9.18 µM.
With `CC1(C)C=Cc2c(O)ccc(C3=Cc4ccc(O)cc4OC3)c2O1` [glabrene], the IC50 in experiment [1] is 7600 µM.
Consider `O=c1c(O)c(-c2ccc(O)cc2O)oc2cc(O)cc(O)c12` [morin], for which the IC50 in experiment [1] is 2320 µM.

A word on the IC50: it is the concentration at which inhibition is half-maximal.

The values above are taken from paper PMC11141316, “Anilino-1,4-naphthoquinones as potent mushroom tyrosinase inhibitors: in vitro and in silico studies” (Journal of Enzyme Inhibition and Medicinal Chemistry, 2024).
